In patent US20240342203A1, “COMPOSITIONS FOR ORAL CANCER OR AN OROPHARYNGEAL CANCER” (GR BIOSYSTEMS, INC., priority 2020, published 2024):
Entries after “also recorded” stand apart in the source; their conditions may differ.

Key:
[1] = test system: MMP-2; assay: Western blot of MMP-2 protein expression/release in Cal-27 cells treated with PGG; format: cell-based; conditions: 48 hours, cell media
Experimental: (§1) Squamous cell carcinoma cells (Cal 27) were purchased from ATCC (CRL-2095) and grown in DMEM with Glutamax, 10% FBS and Penicillin/Streptomycin (1055-024, 15140-122, 10438-018 Gibco-ThermoFischer Scientific) and kept at 37° C. in a humidified air chamber with 5% CO2. Cells were seeded at 3×10^5 cells/flask for the experiments and then grown to confluency. Cells between 3 and 10 passages were used for all experiments. 1,2,3,4,6-Penta-O-galloyl-β-D-glucose (G7548, Sigma-Aldrich) was dissolved in dimethylsulfoxide (DMSO) to obtain a 100 mM stock solution. Subsequent dilutions were done using water, and no flask contained more than 0.5 μL of DMSO (0.01%). […] During the protein extraction, media were collected, flash frozen and saved for BCA, Western Blot, and ELISA analysis. […] The proteins were detected and visualized by fluorescence using the LI-COR Odyssey Classic Infrared Imaging system (LI-COR Biosciences). Densitometry analysis of specific bands was performed with the Image Studio software provided by LI-COR Biosciences and the images analyzed using ImageStudio (LI-COR Biosciences). Statistical analysis, including one-way ANOVA with Dunnett's Multiple Comparison Test and Bonferroni, was done using GraphPad Prism 7 (Graph-Pad Software, La Jolla, CA, USA). p values were calculated using the unpaired two-sided Student's t test to compare groups, with statistical significance set at p<0.05.

[2] = test system: MMP-9; assay: Western blot of MMP-9 protein expression/secretion in Cal-27 cells treated with PGG; format: cell-based; conditions: 48 hours
Experimental: as §1

[3] = test system: MMP-13; assay: Western blot of MMP-13 protein expression/release in Cal-27 cells treated with PGG; format: cell-based; conditions: 48 hours
Experimental: as §1

[4] = test system: Stat3; assay: Western blot of Stat3 and pStat3 in Cal-27 cells treated with PGG; format: cell-based; conditions: 48 hours
Experimental: as §1

[5] = test system: MMP-2 gene; assay: Real time quantitative PCR of MMP-2 gene expression in Cal-27 cells; format: cell-based, Human
Experimental: (§2) Squamous cell carcinoma cells (Cal 27) were purchased from ATCC (CRL-2095) and grown in DMEM with Glutamax, 10% FBS and Penicillin/Streptomycin (1055-024, 15140-122, 10438-018 Gibco-ThermoFischer Scientific) and kept at 37° C. in a humidified air chamber with 5% CO2. Cells were seeded at 3×10^5 cells/flask for the experiments and then grown to confluency. Cells between 3 and 10 passages were used for all experiments. 1,2,3,4,6-Penta-O-galloyl-β-D-glucose (G7548, Sigma-Aldrich) was dissolved in dimethylsulfoxide (DMSO) to obtain a 100 mM stock solution. Subsequent dilutions were done using water, and no flask contained more than 0.5 μL of DMSO (0.01%). […] After washing the tissue culture with 1× phosphate buffered saline (PBS), the cells were lysed, and the RNA purified using a Qiagen RNeasy mini kit using the manufacturer's recommended protocol. All samples were treated with Qiagen DNase. One microgram of RNA was used for reverse transcription and subsequent SYBR® Green real time PCR for the genes of interest as previously described. […] Real time quantitative PCR was performed using an Applied Biosciences StepOne plus instrument and analyzed with StepOne software v2.3. The relative amounts of transcripts from each gene were normalized to reference gene GAPDH and calculated as follows: ΔΔCT=the average ΔCT of […]−the average ΔCT of […], and their fold difference=2−ΔΔCT.

[6] = test system: MMP-9 gene; assay: Real time quantitative PCR of MMP-9 gene expression in Cal-27 cells; format: cell-based, Human; conditions: any PGG dose (1, 2.5, 5, 10 and 20 μM), n=4, p>0.05
Experimental: as §2

[7] = test system: MMP-13 gene; assay: Real time quantitative PCR of MMP-13 gene expression in Cal-27 cells; format: cell-based, Human; conditions: 10 or 20 μM PGG, p<0.05 and p<0.001
Experimental: as §2

[8] = test system: MMP-14 gene; assay: Real time quantitative PCR of MMP-14 gene expression in Cal-27 cells; format: cell-based, Human; conditions: PGG 10-20 μM
Experimental: as §2

[9] = test system: Cal 27 cells; assay: Transmembrane/Boyden Matrigel invasion assay; format: cell-based; conditions: for percentage of cells invading the membrane compared with untreated control: 24 hour treatment; for Number of cells invading through Matrigel: 24 hour
Experimental: Squamous cell carcinoma cells (Cal 27) were purchased from ATCC (CRL-2095) and grown in DMEM with Glutamax, 10% FBS and Penicillin/Streptomycin (1055-024, 15140-122, 10438-018 Gibco-ThermoFischer Scientific) and kept at 37° C. in a humidified air chamber with 5% CO2. Cells were seeded at 3×10^5 cells/flask for the experiments and then grown to confluency. Cells between 3 and 10 passages were used for all experiments. Transmembrane/Boyden assay plates with Matrigel were purchased from Corning. DMEM with 10% FBS was used as a chemoattractant in the lower chamber while the cells in the upper chamber were cultured in DMEM with 1% FBS. Wells were prepared with different concentrations of PGG (0-10 μM) and left to incubate for 24 hour. After 24 hour media has discarded and the cells invading the Matrigel were counted according to established protocols.

[10] = test system: TNF-α; conditions: doses as low as 5 μM; cited from earlier work
[11] = test system: peripheral blood mononuclear cells (PBMCs); conditions: PBMCs treated with PGG; cited from earlier work
[12] = test system: toll-like receptors 4 (TLR4); conditions: peritoneal and colonic macrophages; cited from earlier work
[13] = test system: MyD88 adaptor protein; conditions: peritoneal and colonic macrophages; cited from earlier work

In the case of `O=C(OC[C@H]1O[C@@H](OC(=O)c2cc(O)c(O)c(O)c2)[C@H](OC(=O)c2cc(O)c(O)c(O)c2)[C@@H](OC(=O)c2cc(O)c(O)c(O)c2)[C@@H]1OC(=O)c1cc(O)c(O)c(O)c1)c1cc(O)c(O)c(O)c1` [PGG, 1,2,3,4,6-penta-O-galloyl-β-D-glucose], the “MMP-2 expression vs non-treated group” value ([1]; Cal-27 cells, 10 μM PGG, n=4, p<0.01) is reported as “significantly decreased; also recorded: significantly lower”, the “MMP-2 expression vs non-treated group” value ([1]; Cal-27 cells, 1, 2.5 or 5 μM PGG, n=4, p>0.05) is reported as “not significantly different” and the “MMP-9 expression vs non-treated group” value ([2]; 1 or 2.5 μM PGG, normalized to Histone H3, n=4, p>0.05) is reported as “not significantly different”. The “MMP-9 expression vs non-treated group” value ([2]; 5 or 10 μM PGG, normalized to Histone H3, n=4, p<0.05 and p<0.01) was “significantly decreased; also recorded: significantly lower”, the “MMP-13 expression vs non-treated group” value ([3]; Cal-27 cells, 10 μM PGG, normalized to Histone H3, n=4, p<0.01) was “significantly decreased; also recorded: significantly lower” and the “MMP-13 expression vs non-treated group” value ([3]; Cal-27 cells, 1, 2.5 or 5 μM PGG, normalized to Histone H3, n=4, p>0.05) was “not significantly different”. For the same compound, the “Stat3 phosphorylation (pStat3)” value ([4]; PGG at different concentrations, normalized to Histone H3, n=4, p<0.0001) was “significantly decreases; also recorded: decrease of Stat3 phosphorylation”, the “Non-phosphorylated / total Stat3 vs non-treated cells” value ([4]; PGG at varying concentrations, n=4, p<0.0001) was “significantly higher; also recorded: increase in total Stat3” and the “MMP-2 gene expression (mRNA)” value ([5]; PGG 5 and 10 μM, GAPDH housekeeping, n=4, p<0.0001) was “significantly decreased”. For the same compound, the “MMP-2 gene expression (mRNA) vs non-treated” value ([5]; PGG 10-20 μM) was “reduces”, the “MMP-9 gene expression (mRNA) vs non-treated group” value [6] was “not significantly different; also recorded: did not significantly decrease” and the “MMP-13 gene expression (mRNA)” value [7] was “decreased; also recorded: reduces”. The “MMP-14 gene expression (mRNA) vs non-treated” value [8] was “reduces”, the “percentage of cells invading the membrane compared with untreated control” value ([9]; 0.5 μM PGG) was 44.5% and the “percentage of cells invading the membrane compared with untreated control” value ([9]; 10 μM PGG (maximum effect)) was 22.3%. For the same compound, the “Number of cells invading through Matrigel” value ([9]; PGG 0.5 and 1 μM, n=4, p<0.001) was “significantly lower”, the “Number of cells invading through Matrigel” value ([9]; PGG 2.5, 5 and 10 μM, n=4, p<0.0001) was “significantly lower” and the “suppression of LPS-induced TNF-α production” value [10] was no more than 90%. For the same compound, the “production of TNF-α and IL-1β” value [11] was “resulted in the production of TNF-α and IL-1β”, the “interference with binding of LPS to TLR4” value [12] was “did not interfere” and the “interaction with MyD88 adaptor protein; effect on TNF-α, IL-1β and IL-6 production” value [13] was “interacted directly with MyD88 adaptor protein thereby decreasing the production of TNF-α, IL-1β and IL-6”.
